According to patent US11117926B2, “Cholane derivatives for use in the treatment and/or prevention of FXR and TGR5/GPBAR1 mediated diseases” (BAR PHARMACEUTICALS S.R.L., priority 2014, dated 2021):
Counter-ions that a name gives are not always drawn.

What was measured:
[1] = patients suffering from primary biliary cirrhosis (PBC), clinical trials; cited from earlier work
FXR = target: T1, FXR (Homo sapiens, UniProt Q96RI1); experiment: FXR mediated transactivation (luciferase reporter) in transfected HepG2 cells; type: cell-based; details: each compound at 10 microM, transactivation activity of CDCA on FXR = 100%
T1 construct: expressed in transfected cells; host or cells: HepG2
T1 sequence (Q96RI1 1-486): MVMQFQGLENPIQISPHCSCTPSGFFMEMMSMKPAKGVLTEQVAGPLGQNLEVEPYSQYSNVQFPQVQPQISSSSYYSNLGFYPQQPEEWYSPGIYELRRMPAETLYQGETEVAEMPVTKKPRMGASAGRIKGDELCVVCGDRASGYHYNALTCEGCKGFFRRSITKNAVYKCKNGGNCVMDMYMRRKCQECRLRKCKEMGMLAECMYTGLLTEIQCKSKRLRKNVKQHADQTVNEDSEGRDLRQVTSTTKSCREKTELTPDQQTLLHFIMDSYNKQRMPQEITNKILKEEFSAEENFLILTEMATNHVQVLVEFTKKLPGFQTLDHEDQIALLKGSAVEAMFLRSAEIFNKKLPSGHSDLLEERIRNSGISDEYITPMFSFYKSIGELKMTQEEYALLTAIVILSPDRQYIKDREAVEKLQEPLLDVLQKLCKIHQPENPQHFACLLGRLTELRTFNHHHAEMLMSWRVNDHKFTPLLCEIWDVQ
T1 sequence (P19793 1-462 partner): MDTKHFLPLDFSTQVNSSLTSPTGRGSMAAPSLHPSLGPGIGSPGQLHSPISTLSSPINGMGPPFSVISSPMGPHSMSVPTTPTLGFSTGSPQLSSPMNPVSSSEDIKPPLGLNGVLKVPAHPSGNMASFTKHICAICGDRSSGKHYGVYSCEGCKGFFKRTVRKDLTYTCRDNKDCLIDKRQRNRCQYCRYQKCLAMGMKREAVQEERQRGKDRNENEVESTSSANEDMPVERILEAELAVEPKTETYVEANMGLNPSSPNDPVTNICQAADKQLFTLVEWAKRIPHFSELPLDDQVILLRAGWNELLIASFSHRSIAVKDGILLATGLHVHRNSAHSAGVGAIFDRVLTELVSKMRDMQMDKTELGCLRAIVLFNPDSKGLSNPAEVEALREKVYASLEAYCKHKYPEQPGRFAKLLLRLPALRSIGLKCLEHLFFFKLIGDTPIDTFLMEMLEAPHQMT
Protocol: (§1) Each compound was tested at the concentration of 10 microM and transactivation activity of CDCA on FXR and TLCA on CRE (i.e. TGR5/GPBAR1) was considered equal to 100%.
(§2) Biological Activities. Activity of selected compounds was tested in vitro using a whole cell model transfected with a reporter genes to establish selectivity of compounds shown in table 1 toward FXR and TGR5/GPBAR1 in comparison with chenodeoxycholic acid (CDCA) and TLCA. CDCA is a primary bile acid that functions as an endogenous ligand for FXR, while TLCA is a physiological ligand for TGR5/GPBAR1. In this assay, HepG2 cells (a liver-derived cell line) were cultured at 37° C. in minimum essential medium with Earl's salts containing 10% fetal bovine serum (FBS), 1% L-glutamine, and 1% penicillin/streptomycin. […] The transfection experiments were performed using Fugene HD according to manufactured specifications. Cells were plated in a 24-well plate at 5×10^4 cells/well. For FXR mediated transactivation, HepG2 cells were transfected with 100 ng of pSG5-FXR, 100 ng of pSG5-RXR, 100 ng of pGL4.70 a vector encoding the human Renilla gene and 250 ng of the reporter vector p(hsp27)-TK-LUC containing the FXR response element IR1 cloned from the promoter of heat shock protein 27 (hsp27).
(§3) At 24 h post-transfection, cells were stimulated for 18 h with 10 μM TLCA as a control agent or putative GPBAR1 agonists as the same concentration. After treatments, cells were lysed in 100 μL of lysis buffer (25 mM Tris-phosphate, pH 7.8; 2 mM DTT; 10% glycerol; 1% Triton X-100), and 20 μL of cellular lysate was assayed for luciferase activity using the luciferase assay system. Luminescence was measured using Glomax 20/20 luminometer. Luciferase activities were normalized against Renilla activities. Antagonism against FXR of GPBAR1/TGR5 was measured as percent of activity in transactivation assay suing activity of TLCA as example of agonism.

human GPBAR1 = target: T2, human GPBAR1 (Homo sapiens, UniProt Q8TDU6); experiment: GPBAR1 mediated transactivation (CRE luciferase reporter) in transfected HEK-293T cells; type: cell-based; details: each compound at 10 microM, transactivation activity of TLCA on CRE = 100%
T2 construct: expressed in transfected cells; host or cells: HEK-293T
T2 sequence (Q8TDU6 1-330): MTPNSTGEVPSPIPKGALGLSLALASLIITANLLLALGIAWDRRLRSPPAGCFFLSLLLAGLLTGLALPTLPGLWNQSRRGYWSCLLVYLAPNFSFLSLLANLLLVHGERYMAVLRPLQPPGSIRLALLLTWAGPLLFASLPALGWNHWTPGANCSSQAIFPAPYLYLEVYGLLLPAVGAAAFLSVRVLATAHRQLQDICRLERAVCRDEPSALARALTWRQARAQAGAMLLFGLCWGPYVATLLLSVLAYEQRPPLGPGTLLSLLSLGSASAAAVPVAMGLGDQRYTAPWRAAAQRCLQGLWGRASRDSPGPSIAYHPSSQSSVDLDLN
Protocol: as §1, §2, §3

[2] = target: T3, intestinal bile acid carrier (Homo sapiens, UniProt Q12908); details: CaCo-2 cells; cited from earlier work
T3 construct: host or cells: CaCo-2
T3 sequence (Q12908 1-348): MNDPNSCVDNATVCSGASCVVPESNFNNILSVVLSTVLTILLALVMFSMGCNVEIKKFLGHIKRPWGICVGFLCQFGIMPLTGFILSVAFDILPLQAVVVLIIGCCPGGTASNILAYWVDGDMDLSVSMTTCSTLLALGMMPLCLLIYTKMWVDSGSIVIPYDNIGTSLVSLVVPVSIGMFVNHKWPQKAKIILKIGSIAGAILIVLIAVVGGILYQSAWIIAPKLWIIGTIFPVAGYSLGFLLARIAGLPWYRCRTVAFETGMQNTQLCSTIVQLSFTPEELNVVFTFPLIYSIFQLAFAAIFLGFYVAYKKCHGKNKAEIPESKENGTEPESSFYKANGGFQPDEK

[3] = not given; remark: listed apart in the source
[4] = tested on: sea lamprey (Petromyzon marinus); details: cited from earlier work
[5] = ANIT or 17α-ethynylestradiol cholestasis models

Compound	FXR (% of activity in comparison to 10 μM CDCA) (FXR)	GPBAR1 (% of activity in comparison to 10 μM TLCA) (human GPBAR1)	further results
CC[C@H]1[C@@H](O)[C@@H]2[C@H](CC[C@]3(C)[C@@H]([C@H](C)CCC(=O)O)CC[C@@H]23)[C@@]2(C)CC[C@@H](O)C[C@@H]12 [obeticholic acid]	–	–	patients with severe itching [1]: approximately 80%
CC[C@H]1[C@H](O)[C@@H]2[C@H](CC[C@]3(C)[C@@H]([C@H](C)CCCO)CC[C@@H]23)[C@@]2(C)CC[C@@H](O)C[C@@H]12 [BAR501-6a, 6α-ethyl-3α,7β-dihydroxy-5β-cholan-24-ol]	15.4 ± 1.2%	46.6 ± 6.7%	–
C[C@H](CCO)[C@H]1CCC2C3C(CC[C@@]21C)[C@@]1(C)CC[C@@H](O)C[C@H]1C[C@@H]3O (stereo partly drawn) [BAR107, 3α,7β-dihydroxy-24-nor-5β-cholan-23-ol]	1.8 ± 0.3%	9.9 ± 1.7%	–
C[C@H](CCCOS(=O)(=O)O)[C@H]1CCC2C3C(CC[C@@]21C)[C@@]1(C)CCCC[C@H]1C[C@H]3O (stereo partly drawn) [BAR402, 7α-hydroxy-5β-cholan-24-yl-24-sodium sulfate]	336.4 ± 20.8%	28.0 ± 1.8%	–
CC[C@H]1[C@@H](O)C2C3CC[C@H]([C@H](C)CCCO)[C@@]3(C)CCC2[C@@]2(C)CC[C@@H](O)C[C@@H]12 (some centres unmarked) [BAR504]	488.5 ± 17.5%	103.0 ± 12.1%	–
C[C@H](CC(=O)O)[C@H]1CCC2C3CC[C@@H]4CCCC[C@]4(C)C3CC[C@@]21C (some centres unmarked) [BARn406]	27.0 ± 1.5%	4.8 ± 1.8%	ability to inhibit taurocholic acid transport [2]: undetectable
CC[C@@H]1[C@@H](O)[C@@H]2[C@H](CC[C@]3(C)[C@@H]([C@H](C)CCCO)CC[C@@H]23)[C@@]2(C)CCCC[C@@H]12 [BAR705, 6β-ethyl-7α-hydroxy-5β-cholan-24-ol]	43.7 ± 3.9%	67.0 ± 9.9%	–
CC[C@H]1[C@H](O)[C@@H]2[C@H](CC[C@]3(C)[C@@H]([C@H](C)CCCO)CC[C@@H]23)[C@@]2(C)CC[C@H](O)C[C@@H]12 [BAR707, 6α-ethyl-3β,7β-dihydroxy-5β-cholan-24-ol]	92.5 ± 7.5%	65 ± 6.0%	–
C[C@H](CCOS(=O)(=O)[O-])[C@H]1CC[C@H]2[C@@H]3[C@@H](O)C[C@@H]4C[C@H](O)CC[C@]4(C)[C@H]3CC[C@]12C.[Na+] [BAR106, 3α,7β-dihydroxy-24-nor-5β-cholan-23-yl-23-sodium sulfate]	0%	19.0 ± 1.3%	–
CC[C@H]1[C@@H](O)C2C3CC[C@H]([C@H](C)CCO)[C@@]3(C)CCC2[C@@]2(C)CC[C@@H](O)C[C@@H]12 (stereo partly drawn) [BAR502, 6α-ethyl-3α, 7α-dihydroxy-24-nor-5β-cholan-23-ol]	263.0 ± 32.0%	74.5 ± 6.4%	liver expression of canonical FXR target genes including OSTα, BSEP, SHP and MDR1 [5]: robustly modulates; serum alkaline phosphatase levels [5]: attenuates; survival [5]: increases survival; itching (pruritus) (mouse, in vivo): does not induce itching; bile acid pool ([3]; 17α-ethynylestradiol model): reshapes bile acid pool; cholestasis ([3]; 17α-ethynylestradiol model): attenuates cholestasis; itching ([3]; mouse, in vivo): without inducing itching
CC[C@H]1[C@@H](O)[C@@H]2[C@H](CC[C@]3(C)[C@@H]([C@H](C)CCCOS(=O)(=O)[O-])CC[C@@H]23)[C@@]2(C)CCCC[C@@H]12.[Na+] [BAR701solf, 6α-ethyl-7α-hydroxy-5β-cholan-24-yl 24-sodium sulfate]	229 ± 2.0%	63.5 ± 0.5%	–
CC[C@@H]1[C@H](O)[C@@H]2[C@H](CC[C@]3(C)[C@@H]([C@H](C)CCCO)CC[C@@H]23)[C@@]2(C)CC[C@@H](O)C[C@@H]12 [BAR501, 6β-ethyl-3α,7β-dihydroxy-5β-cholan-24-ol]	9.9 ± 0.1%	64.5 ± 0.5%	–
CC[C@H]1[C@@H](O)C2C3CC[C@H]([C@H](C)CCCCC(=O)O)[C@@]3(C)CCC2[C@@]2(C)CC[C@@H](O)C[C@@H]12 (stereo partly drawn) [BAR802, 6α-ethyl-3α, 7α-dihydroxy-25, 26-bishomo-5β-cholan-26-oic acid]	11.5 ± 8.5%	56 ± 5.0%	–
CC[C@@H]1[C@@H](O)[C@@H]2[C@H](CC[C@]3(C)[C@@H]([C@H](C)CCCO)CC[C@@H]23)[C@@]2(C)CC[C@@H](O)C[C@@H]12 [BAR504-6b, 6β-ethyl-3α,7α-dihydroxy-5β-cholan-24-ol]	32.4 ± 14.1%	75.3 ± 3.4%	–
C[C@H](CCCOS(=O)(=O)O)[C@H]1CCC2C3CC[C@@H]4CCCC[C@]4(C)C3CC[C@@]21C (some centres unmarked) [BAR407]	177.1 ± 3.5%	37.3 ± 2.5%	olfactory response [4]: did not to elicit an olfactory response
